# Source: US6136810A, “Pyrido[2,3-D]pyrimidine derivatives and pharmaceutical compositions thereof” (priority 1995, dated 2000)
# Tested on: I, II, III and V type phosphodiesterase isozymes
# Assay: Activity to inhibit various phosphodiesterase isozymes (selectivity for type IV)
# Format: biochemical, rat (types I, III); human (type V)
# Conditions: IC50 ratio vs types I
# Excerpt: [A] In order to evaluate selectivity of the compounds of the present invention for type IV phosphodiesterase, I, II, III and V type phosphodiesterase isozymes were purified in the following manner.
# 1) Solutions containing various phosphodiesterase (I, II and III types) isozymes were purified from rat heart muscle cells in the following manner. Under ether anesthesia, Wistar rat was subjected to thoracotomy to excise the heart. After removing blood by perfusion with physiological saline supplemented with heparin (1 unit/ml), the heart was finely chopped with scissors.
# 2) Solutions containing various phosphodiesterase isozymes were obtained from the thus obtained soluble fraction in the following manner. […] Each fraction was checked for cAMP- and cGMP-metabolizing phosphodiesterase activities. […] These fractions were separately collected to be used as phosphodiesterase (types I, II and III) stock solutions for the examination of selectivity.
# 3) A solution containing type V phosphodiesterase was prepared from peripheral blood of a healthy person in the following manner. A 200 ml portion of physiological saline supplemented with dextran (3%) was added to 500 ml of heparinized peripheral blood and incubated at 37° C. for 40 minutes to effect precipitation of erythrocytes. The supernatant fluid after precipitation of erythrocytes was recovered and centrifuged once, and the resulting precipitate was suspended in buffer B (140 mM NaCl, 5 mM KCl, 5 mM glucose and 10 mM HEPES, pH 7.4), overlaid on a solution for density gradient centrifugation use (Ficoll solution) and then centrifuged at room temperature for 40 minutes at 450×g, thereby separating monocyte fraction and granulocyte fraction.
# Each fraction was checked for cAMP- and cGMP-metabolizing phosphodiesterase activities. Fractions having only cGMP metabolizing activity were collected to be used as the type V phosphodiesterase stock solution.
# [B] Inhibitory activities were measured using the thus obtained stock solutions of various phosphodiesterase isozymes.
# After completion of the reaction, the reaction mixture was boiled at 90° C. for 1 minute, cooled in an ice bath, mixed with 1 unit of 5'-nucleotidase and then subjected to 10 minutes of reaction at 30° C., and the reaction was stopped by adding 1 ml of methanol. The reaction solution was passed through a Dowex 1×8 column to effect adsorption of un-metabolized cAMP or cGMP and then radioactivity in the eluate was measured using a scintillation counter.
row,SMILES,selectivity in inhibition activity against type IV PDE over the other types of PDE [times]
1,"CCc1ccc2c(-c3cccc(Cl)c3)nc(=O)n(CC)c2n1 [Example 1, 4-(3-chlorophenyl)-1,7-diethylpyrido[2,3-d]pyrimidin-2(1H)-one]",≥ 1000
2,"CCn1c(=O)nc(-c2cccc(Br)c2)c2ccc(C)nc21 [Example 4, 4-(3-Bromophenyl)-1-ethyl-7-methylpyrido[2,3-d]pyrimidin-2(1H)-one]",≥ 1000

# The remaining lines, values ahead:
row,selectivity in inhibition activity against type IV PDE over the other types of PDE [times],SMILES
1,≥ 1000,"CCn1c(=O)nc(-c2cccc(Cl)c2)c2ccc(C(C)O)nc21 (centres unmarked) [Example 19, 4-(3-chlorophenyl)-1-ethyl-7-(1-hydroxyethyl)pyrido[2,3-d]pyrimidin-2(1H)-one]"
2,≥ 1000,"CCn1c(=O)nc(-c2cccc(Cl)c2)c2ccc(C)nc21 [Example 3, 4-(3-Chlorophenyl)-1-ethyl-7-methylpyrido[2,3-d]pyrimidin-2(1H)-one]"

# Target: type IV phosphodiesterase
# Assay: Type IV phosphodiesterase inhibition activity measuring test (in vitro)
# Format: biochemical
# Conditions: Table 1; human granulocyte type IV PDE, 1 μM cAMP, 30° C.; read-out: Type IV PDE inhibition activity IC50
# Experimental: The following assay was used for the evaluation of the capability of the compounds of the present invention to inhibit type IV phosphodiesterase.
# 1) Physiological saline (200 ml) supplemented with dextran (3%) was added to 500 ml of heparinized peripheral blood of a healthy person and incubated at 37° C. for 40 minutes to effect precipitation of erythrocytes. The supernatant after precipitation of erythrocytes was recovered and centrifuged once, and the resulting precipitate was suspended in buffer A (140 mM NaCl, 5 mM KCl, 5 mM glucose and 10 mM HEPES, pH 7.4), overlaid on a solution for density gradient centrifugation use (Ficoll solution) and then centrifuged at room temperature for 40 minutes at 450×g, thereby separating monocyte fraction and granulocyte fraction. The granulocyte fraction was washed once with buffer B (140 mM NaCl, 5 mM KCl; 1 mM CaCl2, 1 mM MgCl2, 5 mM glucose and 10 mM HEPES, pH 7.4) and suspended in buffer C (20 mM Bis-Tris, 5 mM dithioerythritol, 2 mM EGTA and 50 mM sodium acetate, pH 6.5) containing a protease inhibitor (50 μM phenyl-methyl-sulfonyl-fluoride, 5 μM pepstatin A, 40 μM leupeptin, 20 μM aprotinin or 2 mM benzamidine) and then the cells were disrupted using polytron and sonicator and subjected to ultracentrifugation (4° C., 100,000×g, 60 minutes) to give a soluble fraction.
# 2) The thus obtained soluble fraction was applied to a column of 1.6×10 cm packed with Q Sepharose which had been equilibrated with buffer C. Next, the column was washed with 300 ml of buffer C to remove non-absorbed protein. Phosphodiesterase was eluted with 200 ml of buffer C having 0.05 to 1.25 M linear gradient of sodium acetate to collect 40 fractions each containing 5.0 ml eluate. Each fraction was checked for cAMP- and cGMP-metabolizing phosphodiesterase activities. Fractions having no cGMP- but cAMP-metabolizing activity and showing disappearance of the metabolizing activity by 10 μM rolipram (a type IV phosphodiesterase selective inhibitor) were collected to be used as a stock solution for the examination of type IV phosphodiesterase inhibition activity.
# 3) A predetermined amount of each compound to be tested was subjected to 10 minutes of reaction at 30° C. in a reaction mixture containing 40 mM Tris-HCl (pH 8.0), 5 mM MgCl2, 4 mM 2-mercaptoethanol, 0.3 μM cilostamide (an III type phosphodiesterase selective inhibitor), 1 μM cAMP, 10 nM ^3 H-cAMP and the type IV phosphodiesterase stock solution. The reaction solution was boiled at 90° C. for 1 minute, cooled in an ice bath, mixed with 1 unit of 5'-nucleotidase and then subjected to 10 minutes of reaction at 30° C., and the reaction was stopped by the addition of 1 ml of methanol. The reaction solution was passed through a Dowex 1×8 column to adsorb un-hydrolyzed material and then the radioactivity was measured.
# 4) Concentration of each compound to be tested which inhibits 50% of the metabolic activity of type IV phosphodiesterase was calculated and expressed as IC50. Test results: Results of the measurement of the activity of the compounds of the present invention to inhibit type IV PDE are shown in Tables 1 and 2, together with the results of the compounds illustratively disclosed in the aforementioned U.S. Patent and similar comparative compounds which were separately synthesized.
row,SMILES,IC50 [nM]
1,"Cc1cccc(-c2nc(=O)n(CC3CC3)c3nc(C)ccc23)c1 [Example 33, 1-Cyclopropylmethyl-7-methyl-4-(3-methylphenyl)pyrido[2,3-d]pyrimidin-2(1H)-one]",6.19
2,"CCc1ccc2c(C3CCCCC3)nc(=O)n(CC)c2n1 [Example 34, 4-Cyclohexyl-1,7-diethylpyrido[2,3-d]pyrimidin-2(1H)-one]",1.47
3,"CCc1ccc2c(-c3cccc(Cl)c3)nc(=S)n(CC)c2n1 [Example 41, 4-(3-Chlorophenyl)-1,7-diethylpyrido[2,3-d]pyrimidin-2(1H)-thione]",0.85
4,"CCn1c(=O)nc(-c2cccc([N+](=O)[O-])c2)c2ccc(C)nc21 [Example 37, 1-Ethyl-7-methyl-4-(3-nitrophenyl)-pyrido[2;3-d]pyrimidin-2(1H)-one]",4.75

# More lines, now with the values ahead:
row,IC50 [nM],SMILES
1,5.79,"CCn1c(=O)nc(-c2cccc(Cl)c2)c2ccc(C(C)SC(C)=O)nc21 (centres unmarked) [Example 40, 7-(1-acetylthioethyl)-4-(3-chlorophenyl)-1-ethylpyrido[2,3-d]pyrimidin-2(1H)-one]"
2,8.08,"CCn1c(=O)nc(-c2cccc(Cl)c2)c2ccc(C(C)O)nc21 (centres unmarked) [Example 19, 4-(3-chlorophenyl)-1-ethyl-7-(1-hydroxyethyl)pyrido[2,3-d]pyrimidin-2(1H)-one]"
3,7.8,"CCn1c(=O)nc(-c2cccc(Cl)c2)c2ccc(C3CC3)nc21 [Example 22, 4-(3-Chlorophenyl)-7-cyclopropyl-1-ethylpyrido[2,3-d]pyrimidin-2(1H)-one]"
4,0.93,"CCn1c(=O)nc(-c2cccc(Cl)c2)c2ccc(C=NO)nc21 [Example 36, 4-(3-chlorophenyl)-1-ethyl-7-hydroxyiminomethylpyrido[2,3-d]pyrimidin-2(1H)-one]"

# Same assay, conditions: Table 2; human granulocyte type IV PDE, 1 μM cAMP, 30° C.; read-out: Type IV PDE Inhibition IC50
row,SMILES,IC50 [nM]
1,"CC(C)n1c(=O)nc(-c2ccc(Cl)cc2)c2cccnc21 [compound 2, reference compound]",> 3000
2,"CCc1ccc2c(-c3cccc(Cl)c3)nc(=O)n(CC)c2n1 [Example 1, 4-(3-chlorophenyl)-1,7-diethylpyrido[2,3-d]pyrimidin-2(1H)-one]",0.81
3,"CCc1ccc2c(-c3cccc(C)c3)nc(=O)n(CC)c2n1 [Example 6, 1,7-Diethyl-4-(3-methylphenyl)pyrido[2,3-d]pyrimidin-2(1H)-one]",3.7
4,"CCn1c(=O)nc(-c2cccc(Br)c2)c2ccc(C)nc21 [Example 4, 4-(3-Bromophenyl)-1-ethyl-7-methylpyrido[2,3-d]pyrimidin-2(1H)-one]",1.45
5,"CC(C)n1c(=O)nc(-c2ccc(Cl)c(Cl)c2)c2cccnc21 [compound 4, reference compound]",> 3000
6,"CCc1ccc2c(-c3cccc(Br)c3)nc(=O)n(CC)c2n1 [Example 2, 4-(3-Bromophenyl)-1,7-diethylpyrido[2,3-d)pyrimidin-2(1H)-one]",1.15

# Results, then the compound that gave them:
row,IC50 [nM],SMILES
1,> 3000,"CCn1c(=O)nc(-c2ccc(Cl)cc2)c2cccnc21 [compound 3, 4-(4-chlorophenyl)-1-ethylpyrido[2,3-d]pyrimidin-2(1H)-one, reference compound]"
2,2840,"CCn1c(=O)nc(-c2ccccc2Cl)c2cccnc21 [compound 1, 4-(2-chlorophenyl)-1-ethylpyrido[2,3-d]pyrimidin-2(1H)-one, reference compound]"
3,612,"CCn1c(=O)nc(-c2cccc(C)c2)c2cccnc21 [compound 8, 4-(3-methylphenyl)-1-ethylpyrido[2,3-d]pyrimidin-2(1H)-one, reference compound]"
4,2.32,"CCn1c(=O)nc(-c2cccc(Cl)c2)c2ccc(C)nc21 [Example 3, 4-(3-Chlorophenyl)-1-ethyl-7-methylpyrido[2,3-d]pyrimidin-2(1H)-one]"
5,> 3000,"CCn1c(=O)nc(-c2ccc(Cl)c(Cl)c2)c2cccnc21 [compound 5, 4-(3,-4-dichlorophenyl)-1-ethylpyrido[2,3-d]pyrimidin-2(1H)-one, reference compound]"
6,308,"CCn1c(=O)nc(-c2cccc(Cl)c2)c2cccnc21 [compound 7, 4-(3-chlorophenyl)-1-ethylpyrido[2,3-d]pyrimidin-2(1H)-one, reference compound]"
7,803,"CC(C)n1c(=O)nc(-c2cccc(Cl)c2)c2cccnc21 [compound 6, 4-(3-chlorophenyl)-1-isopropylpyrido[2,3-d]pyrimidin-2(1H)-one, reference compound]"
8,3.5,"CCn1c(=O)nc(-c2cccc(C)c2)c2ccc(C)nc21 [Example 5, 1-Ethyl-7-methyl-4-(3-methylphenyl)-pyrido[2,3-d]pyrimidin-(1H)-one]"
